Results: paper PMC3353973 (PLoS ONE, 2012)
Numbered stars: 1 amine (or outer) side, 2 acyl side, 3 side chain; on linkers, the order of the positions; unused ones are H or OH. Bridge positions count the residues as written; N and C are the ends. I, II: the chains in the order shown. X1 = CC(C)CCC[C@@H](C)[C@H]1CC[C@H]2[C@@H]3CC=C4C[C@@H](OCCN(CCNC(=O)CCOCCOCCOCCOCCNC(=O)CCCN5C(=O)CC([*:1])C5=O)CCNC(=O)CCOCCOCCOCCOCCNC(=O)CCCN5C(=O)CC([*:2])C5=O)CC[C@]4(C)[C@H]3CC[C@]12C

Details: hamster, in vivo

## I: Ac-VALDPIDISIVLNKAKSDLEESKEWIRRSNGKLDSIGSGSGC-NH2 / II: Ac-VALDPIDISIVLNKAKSDLEESKEWIRRSNGKLDSIGSGSGC-NH2 (linker I:42-II:42 via X1) [HPIV-P4]
  Apparent toxicity in mock-infected animals: did not result in any apparent toxicity
